Laboratory results reported in patent US20240116951A1, “HETEROCYCLIC COMPOUNDS AND USES THEREOF” (Kumquat Biosciences Inc., priority 2022, published 2024).

What was measured:
Format in all cases: binding
[1] = molecular target: T1, KRAS G12S (Homo sapiens, UniProt P01116, G12S); experiment: HTRF assay of K-Ras G12S interaction with SOS1 (PPI-HTRF); settings: 5 nM KRAS G12S, read-out: PPI-HTRF-5 nM KRAS G12S
T1 construct: made in house; host or cells: E. coli, e.g. BL21 (DE3)
Source text: (§1) This assay can be also used to assess a selective inhibition or reduction of signaling output of a mutant Ras protein relative to a wildtype, or relative to a different mutant Ras protein. For example, the equilibrium interaction of wildtype Kras or K-Ras mutant (e.g., wildtype or a mutant thereof including those mentioned in Example 4) with SOS1 (e.g., hSOS1) can be assessed as a proxy or an indication for a subject compound's ability to bind and inhibit Ras protein. HTRF assay detects from (i) a fluorescence resonance energy transfer (FRET) donor (e.g., antiGST-Europium) that is bound to GST-tagged K-Ras mutant to (ii) a FRET acceptor (e.g., anti-6His-XL665) bound to a His-tagged hSOS1.
(§2) The assay buffer can contain ˜5 mM HEPES pH 7.4, ˜150 mM NaCl, ˜1 mM DTT, 0.05% BSA and 0.0025% (v/v) Igepal. A Ras working solution is prepared in an assay buffer containing typically a suitable amount of the protein construct (e.g., GST-tagged K-Ras mutant) and the FRET donor (e.g., antiGST-Eu(K) from Cisbio, France). A SOS1 working solution is prepared in an assay buffer containing suitable amount of the protein construct (e.g., His-hSOS1) and the FRET acceptor (e.g., anti-6His-XL665 from Cisbio, France). A suitable amount of the protein construct will depend on the range of activity or range of IC50 values being detected or under investigation. For detecting IC50 within a range of 500 nM, the protein constructs of the same range of molarity can be utilized. […] A fixed volume of DMSO with or without test compound is transferred into a 384-well plate. Ras working solution is added to all wells of the test plate. SOS1 working solution is added to all wells except for those that are subsequently filled the inhibitor control solution. Upon incubation for about 10 minutes or longer, the fluorescence is measured with a M1000Pro plate reader (Tecan) using HTRF detection (excitation 337 nm, emission 1: 620 nm, emission 2: 665 nm). Compounds are tested in duplicates at different concentrations (for example, 10 μM, 2.5 μM, 0.63 μM, 0.16 μM, 0.04 μM, 0.01 μM test compound). The ratiometric data (i.e., emission 2 divided by emission 1) is used to calculate IC50 values against Ras using GraphPad Prism (GraphPad software). Following this general procedure, samples were tested with or without a subject compound disclosed herein including compounds exemplified in Table 1 to assess their abilities to inhibit a mutant K-Ras relative to another mutant K-Ras or wildtype K-Ras. Signaling output measured in terms of IC50 values can be obtained, a ratio of IC50 against one mutant relative to another mutant can be calculated. For instance, a selective reduction of K-Ras G12D signaling output can be evidenced by a ratio greater than one. In particular, a selective reduction of K-Ras G12D signaling relative to K-Ras WT signaling is evidenced as the ratio of IC50 (against K-Ras WT) to IC50 (against K-Ras G12D) is greater than 1.

[2] = molecular target: T2, KRAS WT (Homo sapiens, UniProt P01116); experiment: HTRF assay of wildtype K-Ras interaction with SOS1 (PPI-HTRF); settings: HTRF, 5 nM KRAS WT; read-out: PPI-HTRF-5 nM KRAS WT
T2 construct: made in house; host or cells: E. coli, e.g. BL21 (DE3)
T2 sequence (P01116 1-188 isoform P01116-2): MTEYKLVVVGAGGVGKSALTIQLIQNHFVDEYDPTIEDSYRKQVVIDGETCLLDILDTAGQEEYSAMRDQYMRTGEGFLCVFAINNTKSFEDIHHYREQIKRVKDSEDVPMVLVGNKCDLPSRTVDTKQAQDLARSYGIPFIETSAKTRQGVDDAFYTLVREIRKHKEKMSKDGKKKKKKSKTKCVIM
Source text: as §1, §2

[3] = molecular target: T3, KRAS G12D (Homo sapiens, UniProt P01116, G12D); experiment: HTRF assay of K-Ras G12D interaction with SOS1 (PPI-HTRF); settings: HTRF, 5 nM KRAS G12D; read-out: PPI-HTRF-5 nM KRAS G12D
T3 construct: made in house; host or cells: E. coli, e.g. BL21 (DE3)
T3 sequence (P01116 1-188 isoform P01116-2 G12D): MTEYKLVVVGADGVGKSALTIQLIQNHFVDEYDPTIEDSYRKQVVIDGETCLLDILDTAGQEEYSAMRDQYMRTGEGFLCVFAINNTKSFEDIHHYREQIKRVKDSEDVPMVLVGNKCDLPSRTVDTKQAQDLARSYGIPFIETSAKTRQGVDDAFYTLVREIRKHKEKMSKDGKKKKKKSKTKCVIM
Source text: as §1, §2

T1 sequence (P01116 1-188 isoform P01116-2 G12S): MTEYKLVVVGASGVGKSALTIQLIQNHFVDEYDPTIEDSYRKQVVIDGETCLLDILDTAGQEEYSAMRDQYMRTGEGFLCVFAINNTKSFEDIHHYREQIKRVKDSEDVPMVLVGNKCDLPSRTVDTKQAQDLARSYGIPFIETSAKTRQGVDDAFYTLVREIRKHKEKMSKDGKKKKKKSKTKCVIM

| SMILES | IC50 [1] [µM] | IC50 [2] [µM] | IC50 [3] [µM] |
| --- | --- | --- | --- |
| Nc1nc2c(-c3ccc4c(N5CC6(CNCCN6)C5)nc(OC[C@@]56CCCN5C[C@H](F)C6)nc4c3F)ccc(F)c2s1 [Compound 253, 7-fluoro-4-(8-fluoro-2-(((2R,7aS)-2-fluorotetrahydro-1H-pyrrolizin-7a(5H)-yl)methoxy)-4-(2,5,8-triazaspiro[3.5]nonan-2-yl)quinazolin-7-yl)benzo[d]thiazol-2-amine] | > 5 | < 5 | > 5 |
| Cc1nc(C)n(C(=O)N2CCC23CCN(c2nc(OC[C@@]45CCCN4C[C@H](F)C5)nc4c(F)c(-c5ccc(F)c6sc(N)c(C#N)c56)c(Cl)cc24)C3)n1 (stereo partly drawn) [Compound 226, 2-amino-4-(6-chloro-4-(1-(3,5-dimethyl-1H-1,2,4-triazole-1-carbonyl)-1,6-diazaspiro[3.4]octan-6-yl)-8-fluoro-2-(((2R,7aS)-2-fluorotetrahydro-1H-pyrrolizin-7a(5H)-yl)methoxy)quinazolin-7-yl)-7-fluorobenzo[b]thiophene-3-carbonitrile] | < 5 | < 5 | < 5 |
| N#Cc1c(N)sc2c(F)ccc(-c3c(Cl)cc4c(N5CCCCC6(CCN6C(=O)n6cncn6)C5)nc(OC[C@@]56CCCN5C[C@H](F)C6)nc4c3F)c12 (stereo partly drawn) [Compound 350] | < 5 | < 5 | < 5 |
| CN(C)C1CN(c2nc(N3CCC4(CCN4C(=O)n4cncn4)C3)c3cc(Cl)c(-c4ccc(F)c5sc(N)c(C#N)c45)c(F)c3n2)C1 (stereo not drawn) [Compound 203, 4-(4-(1-(1H-1,2,4-triazole-1-carbonyl)-1,6-diazaspiro[3.4]octan-6-yl)-6-chloro-2-(3-(dimethylamino)azetidin-1-yl)-8-fluoroquinazolin-7-yl)-2-amino-7-fluorobenzo[b]thiophene-3-carbonitrile] | < 5 | < 5 | > 5 |
| Nc1nc2c(-c3c(Cl)cc4c(N5CCC6(CCN6)C5)nc(OC[C@@]56CCCN5C[C@H](F)C6)nc4c3F)ccc(F)c2s1 (stereo partly drawn) [Compound 242, 4-(6-chloro-8-fluoro-2-(((2R,7aS)-2-fluorotetrahydro-1H-pyrrolizin-7a(5H)-yl)methoxy)-4-(1,6-diazaspiro[3.4]octan-6-yl)quinazolin-7-yl)-7-fluorobenzo[d]thiazol-2-amine] | < 5 | < 5 | < 5 |
| Nc1nc2c(-c3c(Cl)cc4c(N5CCCC6(CCN6)C5)nc(OC[C@@]56CCCN5C[C@H](F)C6)nc4c3F)ccc(F)c2s1 (stereo partly drawn) [Compound 202, 4-(6-chloro-8-fluoro-2-(((2R,7aS)-2-fluorotetrahydro-1H-pyrrolizin-7a(5H)-yl)methoxy)-4-(1,6-diazaspiro[3.5]nonan-6-yl)quinazolin-7-yl)-7-fluorobenzo[d]thiazol-2-amine] | < 5 | < 5 | < 5 |
| Cc1cc(N)c(F)c(-c2c(Cl)cc3c(N4CCC5(CCN5C(=O)n5cncn5)C4)nc(OC[C@@]45CCCN4C[C@H](F)C5)nc3c2F)c1C(F)(F)F (stereo partly drawn) [Compound 279, (6-(7-(3-amino-2-fluoro-5-methyl-6-(trifluoromethyl)phenyl)-6-chloro-8-fluoro-2-(((2R,7aS)-2-fluorotetrahydro-1H-pyrrolizin-7a(5H)-yl)methoxy)quinazolin-4-yl)-1,6-diazaspiro[3.4]octan-1-yl)(1H-1,2,4-triazol-1-yl)methanone] | > 5 | > 5 | > 5 |
| C[C@H](Oc1nc(N2CCC3(CCCN3C(=O)n3cncn3)C2)c2cc(Cl)c(-c3ccc(F)c4sc(N)c(C#N)c34)c(F)c2n1)[C@@H]1CCCN1C (stereo partly drawn) [Compound 241, 4-(4-(1-(1H-1,2,4-triazole-1-carbonyl)-1,7-diazaspiro[4.4]nonan-7-yl)-6-chloro-8-fluoro-2-((S)-1-((S)-1-methylpyrrolidin-2-yl)ethoxy)quinazolin-7-yl)-2-amino-7-fluorobenzo[b]thiophene-3-carbonitrile] | < 5 | < 5 | < 5 |
| N#Cc1c(N)sc2c(F)ccc(-c3c(Cl)cc4c(N5CCC6(COCCN6C#N)C5)nc(OC[C@@]56CCCN5C[C@H](F)C6)nc4c3F)c12 (stereo partly drawn) [Compound 302, 2-(7-(2-amino-3-cyano-7-fluorobenzo[b]thiophen-4-yl)-6-chloro-8-fluoro-2-(((2R,7aS)-2-fluorotetrahydro-1H-pyrrolizin-7a(5H)-yl)methoxy)quinazolin-4-yl)-9-oxa-2,6-diazaspiro[4.5]decane-6-carbonitrile] | < 5 | < 5 | < 5 |

Continued, values first:

| IC50 [1] [µM] | IC50 [2] [µM] | IC50 [3] [µM] | SMILES |
| --- | --- | --- | --- |
| < 5 | < 5 | < 5 | N#Cc1c(N)sc2c(F)ccc(-c3c(Cl)cc4c(N5CCC6(CC5)CCN6C(=O)C5CC5(F)F)nc(OC[C@@]56CCCN5C[C@H](F)C6)nc4c3F)c12 (stereo partly drawn) [Compound 342, 2-amino-4-(6-chloro-4-(1-(2,2-difluorocyclopropane-1-carbonyl)-1,7-diazaspiro[3.5]nonan-7-yl)-8-fluoro-2-(((2R,7aS)-2-fluorotetrahydro-1H-pyrrolizin-7a(5H)-yl)methoxy)quinazolin-7-yl)-7-fluorobenzo[b]thiophene-3-carbonitrile] |
| < 5 | < 5 | < 5 | C[C@H](Oc1nc(N2CCC3(CCN3)C2)c2cc(Cl)c(-c3ccc(F)c4sc(N)c(C#N)c34)c(F)c2n1)[C@@H]1CCCN1C (stereo partly drawn) [Compound 213, 2-amino-4-(6-chloro-8-fluoro-2-((S)-1-((S)-1-methylpyrrolidin-2-yl)ethoxy)-4-(1,6-diazaspiro[3.4]octan-6-yl)quinazolin-7-yl)-7-fluorobenzo[b]thiophene-3-carbonitrile] |
| < 5 | < 5 | < 5 | N#Cc1c(N)sc2c(F)ccc(-c3c(Cl)cc4c(N5CCC6(CCN6C(=O)n6cnnn6)C5)nc(OC[C@@]56CCCN5C[C@H](F)C6)nc4c3F)c12 (stereo partly drawn) [Compound 293, 4-(4-(1-(1H-tetrazole-1-carbonyl)-1,6-diazaspiro[3.4]octan-6-yl)-6-chloro-8-fluoro-2-(((2R,7aS)-2-fluorotetrahydro-1H-pyrrolizin-7a(5H)-yl)methoxy)quinazolin-7-yl)-2-amino-7-fluorobenzo[b]thiophene-3-carbonitrile] |
| < 5 | < 5 | < 5 | N#Cc1c(N)sc2c(F)ccc(-c3c(Cl)cc4c(N5CCC6(CCN6)C5)nc(OC[C@@]56CCCN5C[C@H](F)C6)nc4c3F)c12 (stereo partly drawn) [Compound 212, 2-amino-4-(6-chloro-8-fluoro-2-(((2R,7aS)-2-fluorotetrahydro-1H-pyrrolizin-7a(5H)-yl)methoxy)-4-(1,6-diazaspiro[3.4]octan-6-yl)quinazolin-7-yl)-7-fluorobenzo[b]thiophene-3-carbonitrile] |
| < 5 | < 5 | < 5 | Nc1nc2c(-c3c(Cl)cc4c(N5CCCC6(CCCN6C(=O)n6cncn6)C5)nc(OC[C@@]56CCCN5C[C@H](F)C6)nc4c3F)ccc(F)c2s1 (stereo partly drawn) [Compound 211, (7-(7-(2-amino-7-fluorobenzo[d]thiazol-4-yl)-6-chloro-8-fluoro-2-(((2R,7aS)-2-fluorotetrahydro-1H-pyrrolizin-7a(5H)-yl)methoxy)quinazolin-4-yl)-1,7-diazaspiro[4.5]decan-1-yl)(1H-1,2,4-triazol-1-yl)methanone] |
| < 5 | < 5 | < 5 | Cc1cc(N)nc(-c2c(Cl)cc3c(N4CCC5(CCN5C(=O)n5cncn5)C4)nc(OC[C@@]45CCCN4C[C@H](F)C5)nc3c2F)c1C(F)(F)F (stereo partly drawn) [Compound 286, (6-(7-(6-amino-4-methyl-3-(trifluoromethyl)pyridin-2-yl)-6-chloro-8-fluoro-2-(((2R,7aS)-2-fluorotetrahydro-1H-pyrrolizin-7a(5H)-yl)methoxy)quinazolin-4-yl)-1,6-diazaspiro[3.4]octan-1-yl)(1H-1,2,4-triazol-1-yl)methanone] |
